Legend:
Assay in all cases: Mass spectroscopy proteomics, semi-quantitative binding affinity of serum proteins (plaqueproteome, Table 2)
Conditions in all cases: higher number = stronger affinity
[1] = target: T1, Abeta-42 plaque particles (Homo sapiens, UniProt P05067)
T1 construct: Abeta 1-42
Procedure, shortened: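 AD patient serum or plasma (50% in PBS) was incubated with Abeta-42 aggregates (30 μg) for 1 h at 37 °C, then stained with Thioflavin S for 30 min. Labeled particles were FACS-sorted, trypsin/Lys-C digested overnight and analyzed by MS/MS. Sequest searched human UniProt; Scaffold/Protein Prophet validated the identifications.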

[2] = system: High Density cholesterol (Chl Large) plaque particles; set-up: species or system human
Procedure, shortened: (§1)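 Read-out is MS/MS protein identification (Sequest, strict trypsin, 20 ppm parent tolerance; Scaffold probabilities) of serum proteins bound to flow-sorted cholesterol plaque particles. These particles formed when 50% atherosclerotic serum was incubated with 30 μg cholesterol aggregates for 1 hr at 37° C.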

[3] = system: Low density cholesterol (Chl small) plaque particles; set-up: species or system human
Procedure, shortened: as §1

[4] = target: T2, alpha-synuclein plaque particles (Homo sapiens, UniProt P37840)
T2 construct: 140 amino acids polypeptide
Procedure, shortened: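 AD-subject plasma or serum (800 μL of 50%) mixed with 30 μg preformed alpha-synuclein aggregates for 1 h at 37 °C; Thioflavin S-positive particles isolated by flow sorting. After reduction, acrylamide alkylation and overnight tryptic digestion, serum proteins identified by MS/MS with Sequest and Scaffold.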

Tau plaque particles = system: Tau plaque particles; set-up: species or system human
Procedure, shortened: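 Synthetic Tau-74 and Tau-275 peptides (1 mg/mL PBS, 37° C, 2 h) aggregated; 30 μg aggregates incubated with 50% serum/plasma 1 h at 37° C, stained with Thioflavin S, and plaque particles sorted by flow cytometry. Bound proteins trypsin-digested and identified by MS/MS against human UniProt.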

| Substance | Semi-quantitative analysis of proteins binding to different plaque particles: Abeta-42 [1] | Semi-quantitative analysis of proteins binding to different plaque particles: Chl Large [2] | Semi-quantitative analysis of proteins binding to different plaque particles: Chl small [3] | Semi-quantitative analysis of proteins binding to different plaque particles: Synuclein [4] | Semi-quantitative analysis of proteins binding to different plaque particles: Tau (Tau plaque particles) |
| --- | --- | --- | --- | --- | --- |
| Ig kappa chain V-III region VG | 0 | 1 | 0 | 1 | 0 |
| Ig lambda chain V-IV region Hil | 0 | 0 | 1 | 0 | 1 |
| Ig lambda-2 chain C regions | 9 | 5 | 7 | 8 | 10 |
| Ig lambda-6 chain C region | 5 | 3 | 3 | 6 | 5 |
| Ig lambda-7 chain C region | 2 | 3 | 2 | 4 | 3 |
| Immunoglobulin J chain | 0 | 1 | 1 | 2 | 1 |
| Immunoglobulin lambda-like polypeptide 5 | 9 | 5 | 7 | 8 | 11 |
| Isoform 2 of Annexin A2 | 2 | 0 | 0 | 0 | 0 |
| Isoform 2 of Clusterin | 4 | 6 | 4 | 7 | 5 |
| Isoform 2 of Fibrinogen alpha chain | 0 | 0 | 1 | 0 | 1 |
| Isoform 2 of Protein SET | 4 | 0 | 0 | 0 | 0 |
| Isoform 3 of Fibronectin | 9 | 25 | 19 | 16 | 23 |

— patent US9618524B2, “Method, composition, isolation and identification of a plaque particle and related biomarker” (Plaxgen Inc., priority 2012, dated 2017)
